The results in this text go back to ChEMBL document CHEMBL5360625, “Design, Synthesis, and Antitumor Activity Evaluation of 2-Arylmethoxy-4-(2,2'-dihalogen-substituted biphenyl-3-ylmethoxy) Benzylamine Derivatives as Potent PD-1/PD-L1 Inhibitors” (J Med Chem, 2023).

The nature of data set [1]: AUC (0 to infinity) in Sprague-Dawley rat at 40 mg/kg, IG measured upto 48 hrs by LC-MS/MS analysis. The conditions noted are these: Sprague-Dawley, in vivo, po. It counts as ADME, organism-based. Also noted: time < 48 hrs, dose 40 mg/kg, route ig.
The test system of data set [2] is MC-38. The data set can be described thus: Antitumor activity against mouse MC38 cells implanted in PD-1/PD-L1 humanized C57/BL6 mouse assessed as reduction in tumor growth at 50 mg/kg, IG qd administered on day 5 measured after 2 weeks. Format: functional, organism-based.
The nature of data set [3]: Clearance in Sprague-Dawley rat at 8 mg/kg, iv measured upto 48 hrs by LC-MS/MS analysis. Format: ADME, organism-based. To be noted: Sprague-Dawley, in vivo.
Data set [4] in a line: Nephrotoxicity in PD-1/PD-L1 humanized C57/BL6 mouse implanted with mouse MC38 cells assessed as effect on creatinine level in serum at 50 mg/kg, IG qd administered on day 5 measured after 2 weeks. It counts as toxicity, organism-based, MC-38. To be noted: in vivo, po, 336 h.
Data set [5] can be described thus: Half life in Sprague-Dawley rat at 8 mg/kg, iv measured upto 48 hrs by LC-MS/MS analysis. Format: ADME, organism-based. The conditions noted are these: Sprague-Dawley, in vivo.
Data set [6] concerns MC-38. Description: Immunomodulatory activity in mouse MC38 cells implanted in PD-1/PD-L1 humanized C57/BL6 mouse assessed as increase in CXCR3 mRNA expression level in tumor at 50 mg/kg, IG qd administered on day 5 measured after 2 weeks by RT-PCR analysis. It counts as functional, organism-based.
Data set [7] has as its system MC-38. Description: Antitumor activity against mouse MC38 cells implanted in PD-1/PD-L1 humanized C57/BL6 mouse assessed as tumor growth inhibition at 50 mg/kg, IG qd administered on day 5 measured after 2 weeks. It counts as functional. The conditions noted are these: MC-38, po, 336 h, read-out: TGI.
In data set [8] the test system is MC-38. Description: Antitumor activity against mouse MC38 cells implanted in PD-1/PD-L1 humanized C57/BL6 mouse assessed as increase in CD8 positive CD4 positive ratio in tumor at 50 mg/kg, IG qd administered on day 5 measured after 2 weeks by flow cytometry analysis. Format: functional, organism-based.
The nature of data set [9]: AUC (0 to infinity) in Sprague-Dawley rat at 10 mg/kg, ip measured upto 48 hrs by LC-MS/MS analysis. Format: ADME, organism-based. On the set-up: time < 48 hrs, dose 10 mg/kg, route ip. The conditions noted are these: in vivo.
Data set [10] can be described thus: AUC (0 to infinity) in Sprague-Dawley rat at 8 mg/kg, iv measured upto 48 hrs by LC-MS/MS analysis. Format: ADME, organism-based. Also noted: time < 48 hrs, dose 8 mg/kg, route iv. To be noted: in vivo.
The nature of data set [11]: Cmax in Sprague-Dawley rat at 8 mg/kg, iv measured upto 48 hrs by LC-MS/MS analysis. On the set-up: time < 48 hrs, dose 8 mg/kg, route iv. To be noted: in vivo. Format: ADME, organism-based.
Data set [12] in a line: Half life in Sprague-Dawley rat at 40 mg/kg, IG measured upto 48 hrs by LC-MS/MS analysis. It counts as ADME, organism-based. The conditions noted are these: Sprague-Dawley, in vivo, po.
Data set [13] can be described thus: Tmax in Sprague-Dawley rat at 8 mg/kg, iv measured upto 48 hrs by LC-MS/MS analysis. Format: ADME, organism-based. To be noted: in vivo.
A short description of data set [14]: Toxicity in PD-1/PD-L1 humanized C57/BL6 mouse implanted with mouse MC38 cells assessed as morphological change in heart at 50 mg/kg, IG qd administered on day 5 measured after 2 weeks by hematoxylin-eosin staining based inverted fluorescent microscopic analysis. Format: organism-based, MC-38. The conditions noted are these: in vivo, po, 336 h.
For data set [15], the target named is Programmed cell death 1 ligand 1 (Homo sapiens, UniProt Q9NZQ7). The data set can be described thus: Binding affinity to human PD-L1 expressed in Escherichia coli strain BL21 assessed as dissociation constant by NMR spectroscopic analysis.
Programmed cell death 1 ligand 1, sequence (Q9NZQ7 whole entry): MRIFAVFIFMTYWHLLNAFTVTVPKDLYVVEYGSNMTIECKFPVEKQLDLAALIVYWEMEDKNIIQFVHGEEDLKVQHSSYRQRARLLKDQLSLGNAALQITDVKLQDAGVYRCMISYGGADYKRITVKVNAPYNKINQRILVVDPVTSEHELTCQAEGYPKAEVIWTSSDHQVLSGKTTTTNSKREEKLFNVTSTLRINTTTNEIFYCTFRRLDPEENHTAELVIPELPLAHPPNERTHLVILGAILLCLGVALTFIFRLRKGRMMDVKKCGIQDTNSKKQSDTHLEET
The test system of data set [16] is MC-38. The data set can be described thus: Antitumor activity against mouse MC38 cells implanted in PD-1/PD-L1 humanized C57/BL6 mouse assessed as increase in granzyme B level at 50 mg/kg, IG qd administered on day 5 measured after 2 weeks by microscopic analysis. It counts as functional, organism-based.
Data set [17] can be described thus: Toxicity in PD-1/PD-L1 humanized C57/BL6 mouse implanted with mouse MC38 cells assessed as morphological change in spleen at 50 mg/kg, IG qd administered on day 5 measured after 2 weeks by hematoxylin-eosin staining based inverted fluorescent microscopic analysis. Format: organism-based, MC-38. The conditions noted are these: in vivo, po, 336 h.

Active and inactive are the calls of the source. The calls are words filed in the database; no cut-off is given here.

Regarding `N#Cc1cncc(COc2cc(OCc3cccc(-c4ccccc4F)c3Cl)ccc2CNCCO)c1`, the AUC(0-inf) (commonly total exposure, with the tail of the curve extrapolated) in data set [1] came out at 65500 ng·h/mL; in data set [9], 10500 ng·h/mL; in [10], 13400 ng·h/mL. The outcome in data set [2], in [6], in data set [8] and in data set [16] was Active. For the same compound, the clearance (as a rule, the volume of plasma or blood freed of the substance per unit of time) in data set [3] is 10 mL/min/kg. Further, the Activity entry in data set [4], in data set [14] and in data set [17] was “Non-Toxic” each time. Further, the half-life (in general, how long it takes for the measured level to halve) in [5] is 59.4 min; in [12], 103 min. Also, the inhibition in vivo at 50 mg/kg in [7] was 55.2%. Further, in data set [11], the peak concentration (Cmax) (as a rule, the peak of the concentration-time curve) is 6230 ng/mL. Also, the Tmax (in general, the time from dosing to the highest level) in data set [13] amounted to 4.8 min. Besides, the dissociation constant Kd (usually a measure of binding affinity in units of concentration) in [15] is under 1000 nM.
